# Entries after “also recorded” stand apart in the source; their conditions may differ.
# System: tumorspheres of SUM159 cells
# Assay: gene expression in sequentially passaged tumorspheres treated with chemotherapeutic agents
# Type: cell-based, human
# Conditions: paclitaxel-treated SUM159 tumorspheres; 11 CSC-associated genes; percentage change normalized to primary SUM159 tumorspheres (FIG. 14)
smiles,measurement,value
CC(=O)O[C@H]1C(=O)[C@@]2(C)[C@H]([C@H](OC(=O)c3ccccc3)[C@]3(O)C[C@H](OC(=O)[C@H](O)[C@@H](NC(=O)c4ccccc4)c4ccccc4)C(C)=C1C3(C)C)[C@]1(OC(C)=O)CO[C@@H]1C[C@@H]2O [paclitaxel],expression of upregulated cancer stem cell associated genes,enhancement of the upregulation; also recorded: enhanced further

# Source: US20150030615A1, “BIOMARKERS FOR CANCER STEM CELLS AND RELATED METHODS OF USE” (VERASTEM, INC., priority 2012, published 2015)
